We go through 30 molecules from patent publication US8609690B2, “Aryl- and heteroarylcarbonyl derivatives of substituted nortropanes, medicaments containing such compounds and their use” (Boehringer Ingelheim International GmbH, priority 2008, dated 2013).

Molecules are shown by their SMILES.

In one experiment the target is T1, 11β-HSD 1 (Homo sapiens, UniProt P28845).
T1 construct: detecting cortisol generated from cortisterone by human liver microsomes; from tissue; host or cells: human liver microsomes
T1 sequence (P28845 whole entry): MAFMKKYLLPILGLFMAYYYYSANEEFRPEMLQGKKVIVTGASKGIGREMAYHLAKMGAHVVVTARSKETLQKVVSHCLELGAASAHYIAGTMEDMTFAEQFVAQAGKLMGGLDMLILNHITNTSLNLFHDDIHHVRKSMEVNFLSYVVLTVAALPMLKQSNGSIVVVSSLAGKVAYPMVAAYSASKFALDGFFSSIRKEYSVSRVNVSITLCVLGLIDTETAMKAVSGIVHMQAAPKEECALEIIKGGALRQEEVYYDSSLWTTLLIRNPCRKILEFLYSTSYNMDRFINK
Description: In vitro inhibition of 11β-HSD 1, HTRF detection of cortisol generated by human liver microsomes. In kind it is biochemical. To be noted: 1 μM test compound, 100% indicates no inhibition, zero or below zero indicates complete inhibition (relative to carbenoxolone). The protocol: Briefly, compounds were incubated for 1 hour at 37° C. in Tris buffer (20 mM tris, 5 mM EDTA, pH 6.0) containing NADPH (200 μM) and cortisone (80 nM). Cortisol generated in the reaction is then detected with a competitive immunoassay, involving two HTRF conjugates: cortisol linked to XL665 and anti-cortisol antibody labeled with Europium cryptate. The incubation period for detection reaction was typically 2 hours. The amount of cortisol is determined by reading the time-resolved fluorescence of the wells (Ex 320/75 nm; Em 615/8.5 nm and 665/7.5 nm). The ratio of the two emission signals is then calculated (Em665*10000/Em615). […] Each assay also contained a calibration curve with cortisol to transform the fluorescent data into cortisol concentrations. Percent inhibition of each compound was determined relative to the carbenoxolone signal. In Table 2 the 11β-HSD 1 inhibitory activities at 1 μM concentration of test compound, determined as described above, of the compounds listed in Table 3 are compiled, wherein 100% indicates no inhibition and a value of zero or below zero indicates complete inhibition.
As to `CNC(=O)c1ccc(C(=O)N2[C@@H]3CC[C@H]2C[C@@H](c2ccc(F)cc2)C3)cc1` [Example 79, endo-4-[3-(4-Fluoro-phenyl)-8-aza-bicyclo[3.2.1]octane-8-carbonyl]N-methyl-benzamide], the “Inhibitory activity on 11β-HSD 1, % CTL” value is on record as 90 % CTL.

Take `COC(=O)c1cccc(C(=O)N2[C@@H]3CC[C@H]2C[C@@H](c2ccc(F)cc2)C3)c1` [Example 61, endo-3-[3-(4-Fluoro-phenyl)-8-aza-bicyclo[3.2.1]octane-8-carbonyl]-benzoic acid methyl ester]: the “Inhibitory activity on 11β-HSD 1, % CTL” value is 94 % CTL.

`O=C(c1ccc2c(c1)OCCO2)N1C2CCC1CC(c1ccccc1)C2` (stereo not drawn) [Example 133, (2,3-Dihydro-benzo[1,4]dioxin-6-yl)-(3-phenyl-8-aza-bicyclo[3.2.1]oct-8-yl)-methanone]: the “Inhibitory activity on 11β-HSD 1, % CTL” value is listed as −28 % CTL.

On to `O=C(c1n[nH]c2c1CCC2)N1[C@@H]2CC[C@H]1C[C@@H](c1ccc(F)cc1)C2` [Example 6, endo-[3-(4-Fluoro-phenyl)-8-aza-bicyclo[3.2.1]oct-8-yl]-(1,4,5,6-tetrahydro-cyclopentapyrazol-3-yl)-methanone], for which the “Inhibitory activity on 11β-HSD 1, % CTL” value was 88 % CTL.

With `O=C(c1ccc2c(c1)OCCO2)N1C2CCC1CC(c1cccc(-c3ccccc3)c1)C2` (stereo not drawn) [Example 150, (3-Biphenyl-3-yl-8-aza-bicyclo[3.2.1]oct-8-yl)-(2,3-dihydro-benzo[1,4]dioxin-6-yl)-methanone], the “Inhibitory activity on 11β-HSD 1, % CTL” value is 62 % CTL.

`Cc1nc2cc(C(=O)N3[C@@H]4CC[C@H]3C[C@@H](c3ccc(F)cc3)C4)ccc2c(=O)[nH]1` [Example 69, endo-7-[3-(4-Fluoro-phenyl)-8-aza-bicyclo[3.2.1]octane-8-carbonyl]-2-methyl-3H-quinazolin-4-one]: the “Inhibitory activity on 11β-HSD 1, % CTL” value worked out at 93 % CTL.

As for `COc1ccc(C(=O)N2[C@@H]3CC[C@H]2C[C@@H](c2ccc(F)cc2)C3)cc1OC` [Example 118, endo-(3,4-Dimethoxy-phenyl)-[3-(4-fluoro-phenyl)-8-aza-bicyclo[3.2.1]oct-8-yl]-methanone], the “Inhibitory activity on 11β-HSD 1, % CTL” value is reported as −28 % CTL.

As to `O=C(c1ccc2cc[nH]c2c1)N1[C@@H]2CC[C@H]1C[C@@H](c1ccc(F)cc1)C2` [Example 62, endo-[3-(4-Fluoro-phenyl)-8-aza-bicyclo[3.2.1]oct-8-yl]-(1H-indol-6-yl)-methanone], the “Inhibitory activity on 11β-HSD 1, % CTL” value is −47 % CTL.

For `O=C(c1cccc(-c2cc[nH]n2)c1)N1[C@@H]2CC[C@H]1C[C@@H](c1ccc(F)cc1)C2` [Example 90, endo-[3-(4-Fluoro-phenyl)-8-aza-bicyclo[3.2.1]oct-8-yl]-[3-(1H-pyrazol-3-yl)-phenyl]-methanone], the “Inhibitory activity on 11β-HSD 1, % CTL” value was found to be 42 % CTL.

`O=C(c1cc(F)cc(F)c1)N1[C@@H]2CC[C@H]1C[C@@H](c1ccc(F)cc1)C2` [Example 12, endo-(3,5-Difluoro-phenyl)-[3-(4-fluoro-phenyl)-8-aza-bicyclo[3.2.1]oct-8-yl]-methanone]: the “Inhibitory activity on 11β-HSD 1, % CTL” value worked out at 85 % CTL.

Take `O=C(c1ccc2c(c1)OCCO2)N1C2CCC1CC(c1ccc(F)c(Cl)c1)C2` (stereo not drawn) [Example 148, [3-(3-Chloro-4-fluoro-phenyl)-8-aza-bicyclo[3.2.1]oct-8-yl]-(2,3-dihydro-benzo[1,4]dioxin-6-yl)-methanone]: the “Inhibitory activity on 11β-HSD 1, % CTL” value is −48 % CTL.

Turning to `Nc1ccc(C(=O)N2[C@@H]3CC[C@H]2C[C@@H](c2ccc(F)cc2)C3)cc1` [Example 177, endo-(4-Amino-phenyl)-[3-(4-fluoro-phenyl)-8-aza-bicyclo[3.2.1]oct-8-yl]-methanone], the “Inhibitory activity on 11β-HSD 1, % CTL” value is −44 % CTL.

As to `O=C(c1ccc(O)c(Cl)c1)N1[C@@H]2CC[C@H]1C[C@@H](c1ccc(F)cc1)C2` [Example 167, endo-(3-Chloro-4-hydroxy-phenyl)-[3-(4-fluoro-phenyl)-8-aza-bicyclo[3.2.1]oct-8-yl]-methanone], the “Inhibitory activity on 11β-HSD 1, % CTL” value was −22 % CTL.

For `O=C(c1cscn1)N1[C@@H]2CC[C@H]1C[C@@H](c1ccc(F)cc1)C2` [Example 43, endo-[3-(4-Fluoro-phenyl)-8-aza-bicyclo[3.2.1]oct-8-yl]-thiazol-4-yl-methanone], the “Inhibitory activity on 11β-HSD 1, % CTL” value is on record as 95 % CTL.

With `COc1ccc([C@H]2C[C@H]3CC[C@@H](C2)N3C(=O)c2ccc3c(c2)OCCO3)cc1` [Example 134, endo-(2,3-Dihydro-benzo[1,4]dioxin-6-yl)-[3-(4-methoxy-phenyl)-8-aza-bicyclo[3.2.1]oct-8-yl]-methanone], the “Inhibitory activity on 11β-HSD 1, % CTL” value is on record as −5 % CTL.

For the molecule `Nc1ccc(C(=O)N2[C@@H]3CC[C@H]2C[C@@H](c2ccc(F)cc2)C3)cc1F` [Example 176, endo-(4-Amino-3-fluoro-phenyl)-[3-(4-fluoro-phenyl)-8-aza-bicyclo[3.2.1]oct-8-yl]-methanone], the “Inhibitory activity on 11β-HSD 1, % CTL” value was −42 % CTL.

As to `CC(=O)Nc1ccc(C(=O)N2[C@@H]3CC[C@H]2C[C@@H](c2ccc(F)cc2)C3)cc1` [Example 115, endo-N-{4-[3-(4-Fluoro-phenyl)-8-aza-bicyclo[3.2.1]octane-8-carbonyl]-phenyl}-acetamide], the “Inhibitory activity on 11β-HSD 1, % CTL” value is 33 % CTL.

On to `COc1cc(OC)cc(C(=O)N2[C@@H]3CC[C@H]2C[C@@H](c2ccc(F)cc2)C3)c1` [Example 123, endo-(3,5-Dimethoxy-phenyl)-[3-(4-fluoro-phenyl)-8-aza-bicyclo[3.2.1]oct-8-yl]-methanone], for which the “Inhibitory activity on 11β-HSD 1, % CTL” value was −17 % CTL.

For `Cc1cc(C(F)(F)F)n2nc(C(=O)N3[C@@H]4CC[C@H]3C[C@@H](c3ccc(F)cc3)C4)cc2n1` [Example 42, endo-[3-(4-Fluoro-phenyl)-8-aza-bicyclo[3.2.1]oct-8-yl]-(5-methyl-7-trifluoromethyl-pyrazolo[1,5-a]pyrimidin-2-yl)-methanone], the “Inhibitory activity on 11β-HSD 1, % CTL” value was 93 % CTL.

For the molecule `O=C(c1ccc2[nH]cnc2c1)N1[C@@H]2CC[C@H]1C[C@@H](c1ccc(F)cc1)C2` [Example 1, endo-(1H-Benzoimidazol-5-yl)-[3-(4-fluoro-phenyl)-8-aza-bicyclo[3.2.1]oct-8-yl]-methanone], the “Inhibitory activity on 11β-HSD 1, % CTL” value was −18 % CTL.

Turning to `NC(=O)c1cccc(C(=O)N2[C@@H]3CC[C@H]2C[C@@H](c2ccc(F)cc2)C3)c1` [Example 84, endo-3-[3-(4-Fluoro-phenyl)-8-aza-bicyclo[3.2.1]octane-8-carbonyl]-benzamide], the “Inhibitory activity on 11β-HSD 1, % CTL” value amounted to 41 % CTL.

Consider `O=C(c1cccc(-c2cnco2)c1)N1[C@@H]2CC[C@H]1C[C@@H](c1ccc(F)cc1)C2` [Example 91, endo-[3-(4-Fluoro-phenyl)-8-aza-bicyclo[3.2.1]oct-8-yl]-(3-oxazol-5-yl-phenyl)-methanone], for which the “Inhibitory activity on 11β-HSD 1, % CTL” value was found to be 69 % CTL.

As to `O=C1CCCN1c1cccc(C(=O)N2[C@@H]3CC[C@H]2C[C@@H](c2ccc(F)cc2)C3)c1` [Example 75, endo-1-{3-[3-(4-Fluoro-phenyl)-8-aza-bicyclo[3.2.1]octane-8-carbonyl]-phenyl}-pyrrolidin-2-one], the “Inhibitory activity on 11β-HSD 1, % CTL” value amounted to 92 % CTL.

On to `CC(C)CN1Cc2cccc(C(=O)N3[C@@H]4CC[C@H]3C[C@@H](c3ccc(F)cc3)C4)c2C1=O` [Example 29, endo-7-[3-(4-Fluoro-phenyl)-8-aza-bicyclo[3.2.1]octane-8-carbonyl]-2-isobutyl-2,3-dihydro-isoindol-1-one], for which the “Inhibitory activity on 11β-HSD 1, % CTL” value was 97 % CTL.

Regarding `O=C(c1ccc2ncsc2c1)N1[C@@H]2CC[C@H]1C[C@@H](c1ccc(F)cc1)C2` [Example 94, endo-Benzothiazol-6-yl-[3-(4-fluoro-phenyl)-8-aza-bicyclo[3.2.1]oct-8-yl]-methanone], the “Inhibitory activity on 11β-HSD 1, % CTL” value was determined as 12 % CTL.

With `O=C(c1ccc2c(c1)OCCO2)N1C2CCC1CC(c1ccccc1F)C2` (stereo not drawn) [Example 145, (2,3-Dihydro-benzo[1,4]dioxin-6-yl)-[3-(2-fluoro-phenyl)-8-aza-bicyclo[3.2.1]oct-8-yl]-methanone], the “Inhibitory activity on 11β-HSD 1, % CTL” value was −37 % CTL.

As to `COc1ccccc1[C@H]1C[C@H]2CC[C@@H](C1)N2C(=O)c1ccc2c(c1)OCCO2` [Example 156, endo-(2,3-Dihydro-benzo[1,4]dioxin-6-yl)-[3-(2-methoxy-phenyl)-8-aza-bicyclo[3.2.1]oct-8-yl]-methanone], the “Inhibitory activity on 11β-HSD 1, % CTL” value was −13 % CTL.

`O=C(c1ccc(F)cc1)N1[C@@H]2CC[C@H]1C[C@@H](c1ccc(F)cc1)C2` [Example 103, endo-(4-Fluoro-phenyl)-[3-(4-fluoro-phenyl)-8-aza-bicyclo[3.2.1]oct-8-yl]-methanone]: the “Inhibitory activity on 11β-HSD 1, % CTL” value worked out at 32 % CTL.

In the case of `O=C(c1ccc2c(c1)OCCO2)N1[C@@H]2CC[C@H]1C[C@@H](c1cccnc1)C2` [Example 153, endo-(2,3-Dihydro-benzo[1,4]dioxin-6-yl)-(3-pyridin-3-yl-8-aza-bicyclo[3.2.1]oct-8-yl)-methanone], the “Inhibitory activity on 11β-HSD 1, % CTL” value is on record as −4 % CTL.

Still in this experiment, the particulars now being: 1 μM test compound, 100% indicates no inhibition, zero or below zero indicates complete inhibition (relative to carbenoxolone), 1 µM.
Consider `O=C(c1ccccn1)N1[C@@H]2CC[C@H]1C[C@@H](c1ccc(F)cc1)C2` [Example 98, endo-[3-(4-Fluoro-phenyl)-8-aza-bicyclo[3.2.1]oct-8-yl]-pyridin-2-yl-methanone], for which the “Inhibitory activity on 11β-HSD 1, % CTL” value is 74 % CTL.
